Values joined by “and” are separate entries in the source; they are usually repeats but may differ in a detail not shown here. Identical values can stand only once.
Test system: CEM cells
Assay: Non-targeted LC-MS metabolite profiling: percent [13C6]glucose labeling and relative metabolite levels
Assay type: cell-based, human
Settings: CEM cells, 12 h following release from G1 arrest, replicates #1-#6
Description: To further investigate the functions of dCK and ATR at the G1/S transition in CEM cells, a non-targeted liquid chromatography mass spectrometry (LC-MS) assay was used to determine the utilization of labeled [^13C6]glucose and [^13C9,^15N3]deoxycytidine, the main substrates for de novo and salvage nucleotide biosynthesis, respectively. Of the 166 metabolites identified in CEM cells treated with VE-822 and/or dCKi, 105 metabolites found in all four treatment groups contained glucose-derived ^13C atoms. […] These metabolites included intermediates such as rUTP, rCTP and rCDP in the de novo dCTP biosynthesis (Fig. 1d). […] However, several deoxyribonucleotides, including dCTP, were below the limit of detection of the non-targeted LC-MS approach, raising the concern that the sensitivity of this assay is not sufficient to measure the contribution of the salvage pathway or the ratio of de novo and salvage biosynthesis to these pools. To address this problem, a newly developed targeted MS assay was developed (Fig. 1e and Supplementary Fig. 3). In this assay, samples containing either extracted dNTPs or hydrolyzed DNA from labeled cells are separated by LC for detection by a triple quadrupole mass spectrometer using multiple reaction monitoring (LC-MS/MS-MRM). The first (Q1) and third (Q3) quadrupoles function as mass filters, while the second (Q2) quadrupole serves as a collision chamber (Fig. 1e). For instance, to profile the biosynthetic composition of deoxycytidine (dC) derived from hydrolyzed DNA or dCTP, an intact, protonated dC ion is selected in Q1, followed by fragmentation of the glycosidic bond, which releases protonated cytosine in Q2, that is filtered in Q3 and detected to generate an ion chromatogram. The peak areas for the ion chromatograms of salvage [^13C9,^15N3]dC (red trace), de novo [^13C5]dC (black trace, from [^13C6]glucose) and unlabeled dC (gray trace) (Fig. 1e) are used to determine the relative contributions of the de novo and salvage routes both to dCTP pools and to DNA-incorporated dCTP.
Cells were transferred into RPMI-1640 without glucose and supplemented with 10% dialyzed FBS (Gibco) containing the following labeled substrates: precursors for de novo [U-^13C6]glucose (Sigma-Aldrich, 389374) at 11 mM; precursors for purine salvage [U-^13C10,^15N5]dA (Cambridge Isotopes, CIL 3896), [^15N5]dA (Cambridge Isotopes, NLM-3895) and [^15N5]dG (Cambridge Isotopes, NLM-3899) at 5 µM or as indicated; and precursors for pyrimidine salvage: [U-^13C9,^15N3]dC (Silantes, 124603602) and [U-^13C10,^15N2]dT (Cambridge Isotopes, CNLM-3902) at 5 µM and [^15N2]orotate (Cambridge Isotopes, NLM-1048) at indicated concentrations. The cells were incubated for 12 h or as indicated before sample collection and processing. […]
Non-targeted LC-MS metabolic assays. 1 x 10^6 cells were washed with ice-cold 150 mM ammonium acetate twice before adding 1 mL of ice-cold 80% methanol with 10 nM norvaline as an internal standard. After vigorous vortexing, samples were centrifuged at maximum speed, the aqueous layer was transferred to a glass vial and the metabolites were dried under vacuum. Metabolites were resuspended in 50 μL 70% acetonitrile (ACN) and 5 μL of this solution used for the mass spectrometer-based analysis. The analysis was performed on a Q Exactive (Thermo Scientific) in polarity-switching mode with positive voltage 4.0 kV and negative voltage 4.0 kV. The mass spectrometer was coupled to an UltiMate 3000RSLC (Thermo Scientific) UHPLC system. Mobile phase A was 5 mM ammonium acetate (NH4AcO), pH 9.9, B was acetonitrile and the separation achieved on a Luna […] NH2 100 A column (150 × 2.0 mm, Phenomenex). The flow was 200 μL/min, and the gradient ran from 15% A to 95% A in 18 min, followed by an isocratic step for 9 min and re-equilibration for 7 min. Metabolites were detected and quantified as area under the curve based on retention time and accurate mass (≤ 3 p.p.m.) using the TraceFinder 3.1 (Thermo Scientific). Relative amounts of […]

CNCc1ccc(-c2cc(-c3nc(-c4ccc(S(=O)(=O)C(C)C)cc4)cnc3N)on2)cc1 [VE-822]
Glucose labeling, Tyr (C00082): 0.00% | Glucose labeling, Uric Acid (C00366): 0.00% | Relative level, Orotate: 0.7 | Glucose labeling, Lac (listed as V): 18.07% and 12.73% and 18.58% and 10.84% and 13.61% and 9.63% | Glucose labeling, Lys (listed as V): 0.00% (4×) and 1.11e-14% (2×) | Glucose labeling, Mal (listed as V): 21.43% and 21.55% and 21.63% and 20.66% and 20.63% and 19.36% | Glucose labeling, Met (listed as V): 0.00201% and 0.00233% and 0.002% and 0.0022% and 0.00164% and 0.00224% | Glucose labeling, N-Carbamoyl-L-aspartate (listed as V): 0.12% (3×) and 1.58% and 100.00% (2×) | Glucose labeling, NADP+ (listed as V): 0.00% (5×) and 100.00% | Glucose labeling, Nicotinamide (listed as V): 0.00% (4×) and -2.22e-14% and 1.11e-14% | Glucose labeling, Ornithine (listed as V): 0.12% (3×) and 0.10% and 0.0528% and 0.00133% | Glucose labeling, Orotate (listed as V): 100.00% (5×) and 0.0318% | Glucose labeling, Orotidine (listed as V): 33.66% and 31.88% and 29.83% and 33.19% and 33.56% and 35.92% | Glucose labeling, P-Choline (listed as V): 0.00204% (2×) and 0.00195% and 0.0016% and 0.00194% and 0.00159% | Glucose labeling, P-Ser (listed as V): 17.40% and 18.30% and 18.56% and 14.37% and 10.74% and 15.47% | Glucose labeling, Palmitate (listed as V): 0.0183% and 0.0339% and 0.00791% and 0.04% and 0.0649% and 0.00591% | Glucose labeling, Pantothenate (listed as V): 0.00% (5×) and 1.11e-14% | Glucose labeling, Pro (listed as V): 9.73% and 9.96% and 9.64% and 8.05% and 8.31% and 8.35% | Glucose labeling, Pro-OH (listed as V): 0.00141% and 0.00104% and 0.000977% and 0.00201% and 0.00147% and 0.00157% | Glucose labeling, R5P (listed as V): 100.00% (5×) and 87.46% | Glucose labeling, S7P (listed as V): 82.53% and 82.63% and 83.80% and 82.99% and 87.27% and 79.29% | Glucose labeling, SAM (listed as V): 61.24% and 62.78% and 63.01% and 60.62% and 59.88% and 60.86% | Glucose labeling, Ser (C00065) (listed as V): 11.13% and 10.40% and 10.89% and 9.46% and 9.59% and 9.87% | Glucose labeling, Shikimate (C00493) (listed as V): 0.00% (5×) and 1.11e-14% | Glucose labeling, Succ (C00042) (listed as V): 0.93% and 0.0737% (3×) and 0.000466% and 0.000404% | Glucose labeling, T (C00214) (listed as V): 0.47% and 0.23% and 0.34% and 0.00858% and 0.08% (2×) | Glucose labeling, Thymine (C00178) (listed as V): 0.000884% and 0.000908% and 0.01% and 0.02% (2×) and 0.000701% | Glucose labeling, Trp (C00078) (listed as V): 0.00% (4×) and -2.22e-14% and 1.11e-14% | Glucose labeling, Tyramine (C00483) (listed as V): 0.00% (4×) and -2.22e-14% and 1.11e-14% | Glucose labeling, UDP (C00015) (listed as V): 69.98% and 62.30% and 68.54% and 67.03% and 57.99% and 53.20% | Glucose labeling, UDP-Glc (C00029) (listed as V): 98.27% and 97.52% and 97.62% and 96.48% and 95.86% and 94.41% | Glucose labeling, UDP-GlcNAc (C00043) (listed as V): 91.42% and 92.87% (2×) and 89.85% and 89.76% and 89.80% | Glucose labeling, UMP (C00105) (listed as V): 70.24% and 69.75% and 64.97% and 37.55% and 64.64% and 60.30% | Glucose labeling, UTP (C00075) (listed as V): 73.32% and 70.31% and 75.59% and 75.28% and 69.74% and 72.15% | Glucose labeling, Uracil (C00106) (listed as V): 0.06% and 0.05% and 0.00305% and 0.0378% and 0.0737% (2×) | Glucose labeling, Urocanate (C00785) (listed as V): 0.00% (5×) and -2.22e-14% | Glucose labeling, Val (C00183) (listed as V): 0.00% (5×) and -2.22e-14% | Glucose labeling, Vit-C (C00072) (listed as V): 0.00% (5×) and -2.22e-14% | Glucose labeling, Xanthine (C00385) (listed as V): 0.12% (2×) and 0.06% and 0.0856% and 0.09% (2×) | Relative level, Lac (listed as V): 1.3 (2×) and 1.2 and 0.857 and 0.476 and 0.85 | Relative level, Leu/Ile (listed as V): 1.4 and 1.5 (2×) and 0.9 (2×) and 1.0 | Relative level, Lys (listed as V): 1.7 and 1.9 and 1.8 and 0.9 and 1.0 and 1.2 | Relative level, Mal (listed as V): 1.3 and 0.7 and 0.752 and 0.6 and 0.471 and 0.4 | Relative level, Met (listed as V): 1.5 (3×) and 0.9 (2×) and 1.0 | Relative level, N-Carbamoyl-L-aspartate (listed as V): 1.0 and 0.6 and 0.7 and 0.749 | Relative level, NAD+ (listed as V): 1.0 and 0.9 (2×) and 0.647 and 0.7 and 0.752 | Relative level, NADP+ (listed as V): 0.455 and 0.8 and 0.9 and 0.657 and 0.3 | Relative level, Nicotinamide (listed as V): 1.2 (2×) and 1.1 and 1.0 and 0.9 and 0.854 | Relative level, Ornithine (listed as V): 1.1 and 1.4 (2×) and 0.7 and 0.9 and 1.0 | Relative level, Orotidine (listed as V): 1.0 (3×) and 0.6 (2×) and 0.567 | Relative level, P-Choline (listed as V): 1.3 and 1.1 (2×) and 0.76 and 0.66 and 0.557 | Relative level, P-Creatine (listed as V): 1.7 and 0.9 (2×) and 0.7 and 1.5 and 1.2 | Relative level, P-EtA (listed as V): 1.1 and 0.7 and 0.6 and 1.7 and 0.744 and 0.5 | Relative level, P-Ser (listed as V): 1.0 (2×) and 1.1 and 0.37 and 0.234 and 0.273 | Relative level, PEP (listed as V): 0.435 and 0.082 | Relative level, Palmitate (listed as V): 0.9 (3×) and 1.1 and 1.2 and 1.0 | Relative level, Pantothenate (listed as V): 1.2 and 1.3 and 1.4 and 0.7 and 0.8 (2×) | Relative level, Phe (listed as V): 1.4 and 1.5 (2×) and 0.9 (2×) and 1.0 | Relative level, Pipecolate (listed as V): 1.6 and 1.9 and 1.8 and 0.9 (2×) and 1.2 | Relative level, Pro (listed as V): 1.3 (2×) and 1.4 and 0.851 and 0.9 (2×) | Relative level, Pro-OH (listed as V): 1.3 and 1.4 (2×) and 0.9 (3×) | Relative level, Pyr (listed as V): 2.1 and 3.2 and 1.3 and 0.7 and 1.1 and 6.3 | Relative level, R5P (listed as V): 3.5 and 1.8 and 2.1 and 1.2 and 0.468 and 0.53 | Relative level, S7P (listed as V): 3.0 and 1.6 and 2.7 and 1.2 and 0.9 and 0.6 | Relative level, SAM (listed as V): 1.6 and 1.7 (2×) and 0.9 and 1.1 (2×)

Reference: article PMC5556071, “ATR inhibition facilitates targeting of leukemia dependence on convergent nucleotide biosynthetic pathways” (Nature Communications, 2017)
